Results on seven molecules are retold here after US20100113776A1, “PYRAZOLE DERIVATIVE” (TAISHO PHARMACEUTICAL CO.,LTD., priority 2006, published 2010).

For one test, the system named is male SD rats. Put plainly: Social recognition test. The class given is in vivo, rat. As to conditions: compared to the vehicle group. How it is done: In this test, male SD rats were used. Adult rats were placed in a Perspex test box and acclimated for 30 minutes. Then, young rats were placed in the same test box, and the time taken for the adult rats to show exploratory behavior to the young rats during 5 minutes was measured (first exploratory behavior time). The exploratory behavior measured included sniffing, grooming, and closely following. After a 5 minute exploration, the adult and young rats were removed from the test box and returned to their respective home cages. After 90 minutes, the adult rats were placed again in the same test box as used in the first exploratory behavior test and acclimated for 30 minutes. Then, the same young rats as used in the first test were placed in the test box, and the time taken for the adult rats to show exploratory behavior to the young rats during 5 minutes was measured (second exploratory behavior time). The ratio of the second exploratory behavior time to the first exploratory behavior time (second/first exploratory behavior time ratio) was taken as an indicator of social recognition. The compound of the present invention was orally administered to the adult rats immediately after their first exploratory behavior. The compound of the present invention was dissolved in 0.03 N hydrochloric acid and tested at 0.1, 0.3 and 1 mg/kg.

Test [1] deals with T1, human H3 receptor (Homo sapiens, UniProt Q9Y5N1).
T1 construct: purchased Euroscreen ES-392-M; host or cells: CHO-K1 cells (recombinant expression)
T1 sequence (Q9Y5N1 whole entry): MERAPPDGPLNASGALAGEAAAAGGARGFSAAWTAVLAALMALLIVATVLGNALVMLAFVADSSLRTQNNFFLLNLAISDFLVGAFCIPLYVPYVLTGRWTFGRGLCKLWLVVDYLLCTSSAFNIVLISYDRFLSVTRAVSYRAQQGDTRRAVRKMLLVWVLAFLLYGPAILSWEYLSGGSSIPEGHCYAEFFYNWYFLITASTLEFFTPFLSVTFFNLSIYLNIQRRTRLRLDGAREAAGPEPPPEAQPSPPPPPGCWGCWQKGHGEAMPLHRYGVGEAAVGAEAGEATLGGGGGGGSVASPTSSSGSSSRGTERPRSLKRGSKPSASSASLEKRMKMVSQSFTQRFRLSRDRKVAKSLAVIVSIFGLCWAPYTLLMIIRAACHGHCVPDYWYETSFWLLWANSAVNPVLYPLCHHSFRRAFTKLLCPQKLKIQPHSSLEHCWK
Put plainly: [35S]GTP-γ-S binding test. The settings on record: human H3 receptor membrane preparation; 100 μM R(−)-α-methylhistamine; 0.2 nM [35S]GTP-γ-S; 30 μM GDP. The test is classed as biochemical. The procedure: A human H3 receptor membrane preparation (7.5 μg protein/100 μl), 30 μM GDP, 100 μM R(−)-α-methylhistamine and a test compound were reacted at room temperature for 30 minutes. After completion of the reaction, [^35S]GTP-γ-S (0.2 nM) was added and reacted for an additional 30 minutes. After completion of the reaction, the reaction mixture was subjected to suction filtration through a glass filter (GF/C). The glass filter was washed three times with 20 mM HEPES washing solution (pH 7.4) containing 100 mM sodium chloride and 1 mM magnesium chloride. After washing, the glass filter was dried and a scintillator was added thereto, followed by measurement of radioactivity on the filter using a liquid scintillation counter.
Binding of [^35S]GTP-γ-S in the absence of R(−)-α-methylhistamine was defined as non-specific binding, and the difference between total binding in the presence of R(−)-α-methylhistamine and non-specific binding was defined as specific binding of [^35S]GTP-γ-S. Fixed concentrations of [^35S]GTP-γ-S (0.2 nM) and R(−)-α-methylhistamine (100 μM) were reacted under the above conditions with each test drug at various concentrations to obtain an inhibition curve. The inhibition curve was used to determine the concentration (IC50) of each test drug required for 50% inhibition of [^35S]GTP-γ-S binding.
On the technique in general: GTPγS is a poorly hydrolysed GTP analogue; its binding reports G protein activation.

Test [2] concerns the target T1, human H3 receptor. Put plainly: H3 receptor binding test. As to conditions: membrane preparation of human H3 receptor-expressing CHO-K1 cells; 2 nM R(−)-α-methyl[3H]histamine; room temperature, 1 hour. How it is done:
A membrane preparation of human H3 receptor-expressing CHO—K1 cells (Euroscreen, ES-392-M, 15 μg protein/200 μl), R(−)-α-methyl[^3H]histamine (Amersham, TRK-1017, specific activity: 1.74 TBq/mmol, 2 nM) and a test drug were reacted at room temperature for 1 hour. After completion of the reaction, the reaction mixture was subjected to suction filtration through a 0.3% polyethyleneimine-treated glass filter (GF/C). The glass filter was washed five times with 50 mM Tris-HCl washing solution (pH 7.4) containing 0.1% BSA and 5 mM magnesium chloride. After washing, the glass filter was dried and a scintillator was added thereto, followed by measurement of radioactivity on the filter using a liquid scintillation counter.
Binding of R(−)-α-methyl[^3H]histamine in the presence of 10 μM R(−)-α-methylhistamine was defined as non-specific binding, and the difference between total binding and non-specific binding of R(−)-α-methyl[^3H]histamine was defined as specific binding of R(−)-α-methyl[^3H]histamine. A fixed concentration (2 nM) of R(−)-α-methyl[^3H]histamine was reacted under the above conditions with each test drug at various concentrations to obtain an inhibition curve. The inhibition curve was used to determine the concentration (IC50) of each test drug required for 50% inhibition of R(−)-α-methyl[^3H]histamine binding.

For orientation: IC50 means the concentration that gives 50% inhibition. Turning to `O=C(c1cnn(-c2ccc(OC3CCN(C4CCCC4)CC3)cc2)c1)N1CCCC1` [Compound No. 1, 1-cyclopentyl-4-{4-[4-(pyrrolidin-1-ylcarbonyl)-1H-pyrazol-1-yl]phenoxy}piperidine], the “second/first exploratory behavior time ratio” value in the test on male SD rats (0.3 mg/kg orally to adult male SD rats immediately after first exploratory behavior) and in the test with male SD rats (1 mg/kg orally to adult male SD rats immediately after first exploratory behavior) was “significantly reduced” each time. Moreover, the half-inhibitory concentration (IC50) was 2.6 nM on human H3 receptor [1] and 10.4 nM on human H3 receptor [2].

For `CC1CCCC1N1CCC(Oc2ccc(-n3cc(C(=O)N4CCCC4)cn3)cc2)CC1` (stereo not shown) [Compound No. 5, 1-(2-methylcyclopentyl)-4-{4-[4-(pyrrolidin-1-ylcarbonyl)-1H-pyrazol-1-yl]phenoxy}piperidine], the half-inhibitory concentration (IC50) at human H3 receptor [2] worked out at 8.1 nM.

For `O=C(c1cnn(-c2ccc(OC3CCN(C4CCC4)CC3)cc2)c1)N1CCCC1` [Compound No. 14, 1-cyclobutyl-4-{4-[4-(pyrrolidin-1-ylcarbonyl)-1-pyrazol-1-yl]phenoxy}piperidine], the results for the IC50 at human H3 receptor [1] and on human H3 receptor [2] were 1.6 nM and 7.1 nM, respectively.

Regarding `O=C(c1ccn(-c2ccc(OC3CCN(C4CCC4)CC3)cc2)n1)N1CCCC1` [Compound No. 68, {1-[4-(1-cyclobutylpiperidin-4-yloxy)phenyl]-1H-pyrazol-3-yl}pyrrolidin-1-yl-methanone], the IC50 on human H3 receptor [1] came to 1.2 nM; on human H3 receptor [2], 7.1 nM.

In the case of `O=C(NC1CCCC1)c1cnn(-c2ccc(OC3CCN(C4CCC4)CC3)cc2)c1` [compound 16, 1-{4-[(1-cyclobutylpiperidin-4-yl)oxy]phenyl}-N-cyclopentyl-1H-pyrazole-4-carboxamide], the half-maximal inhibitory concentration (IC50) on human H3 receptor [1] worked out at 1.1 nM; at human H3 receptor [2], 5.7 nM.

Consider `O=C(NCC(F)(F)F)c1cnn(-c2ccc(OC3CCN(C4CCC4)CC3)cc2)c1` [compound 18, 1-{4-[(1-cyclobutylpiperidin-4-yl)oxy]phenyl}-N-(2,2,2-trifluoroethyl)-1H-pyrazole-4-carboxamide], for which the half-inhibitory concentration (IC50) on human H3 receptor [2] is 14.7 nM.

On to `O=C(NCC1CCCCC1)c1cnn(-c2ccc(OC3CCN(C4CCC4)CC3)cc2)c1` [compound 19, 1-{4-[(1-cyclobutylpiperidin-4-yl)oxy]phenyl}-N-(cyclohexylmethyl)-1H-pyrazole-4-carboxamide], for which, at human H3 receptor [2], the concentration for half-maximal inhibition (IC50) was determined as 6.2 nM.
